Test results from article PMC5107250, “Identification of Novel Inhibitors against Coactivator Associated Arginine Methyltransferase 1 Based on Virtual Screening and Biological Assays” (BioMed Research International, 2016).

Legend:
[1] = tested on: HELA (cervical cancer); experiment: Cell viability (MTT) assay, HELA; format: cell-based, human; details: 24 hrs, 48 hrs, 72 hrs, Figure 2
Procedure: (§1) The three cell lines, HELA, K562, and MCF7, were purchased from the American Type Culture Collection (ATCC). HELA, K562, and MCF7 were cultured in DMEM (Life Technologies) supplemented with 10% FBS. All of the cell lines were seeded into 96-well plates at an appropriate density and then treated with compounds of different concentrations or DMSO control. After 24 hrs, 48 hrs, and 72 hrs, cell viabilities were measured by the MTT assay. It has been reported that CARM1 was a potential target in many cancers; thus it is well accepted that inhibiting CARM1 could affect cancer cell proliferation. In this study, three human tumor cell lines including HELA (cervical cancer), K562 (myeloid leukemia), and MCF7 (breast cancer) were chosen to evaluate the cellular activity of the two compounds DC_C11 and DC_[…]. Sinefungin, a pan-PRMTs inhibitor which has the same scaffold as the cofactor SAM does, was evaluated for control experiment. […] In the three cell lines, DC_[…] presents better antiproliferative cellular activity, which is consistent with their inhibitory activity in vitro. Combined with the biological data in vitro, we confirmed that compounds DC_C11 and DC_[…] are cell membrane permeable, which presented promising activity both in vitro and in cellular environment.  Figure 2 Antiproliferative effect of DC_C11 and DC_[…] on several cancer cell lines. (a-c) Time-dependent and dose-dependent inhibitory effect of DC_C11 on HELA, K562, and MCF7 within 24 hrs, 48 hrs, and 72 hrs, respectively. (d-f) Time-dependent and dose-dependent inhibitory effect of DC_[…] on HELA, K562, and MCF7 within 24 hrs, 48 hrs, and 72 hrs, respectively. (g-i) Time-dependent and dose-dependent inhibitory effect of Sinefungin on HELA, K562, and MCF7 within 24 hrs, 48 hrs, and 72 hrs, respectively.

[2] = tested on: K562 (myeloid leukemia); experiment: Cell viability (MTT) assay, K562; format: cell-based, human; details: 24 hrs, 48 hrs, 72 hrs, Figure 2
Procedure: as §1

[3] = tested on: MCF7 (breast cancer); experiment: Cell viability (MTT) assay, MCF7; format: cell-based, human; details: 24 hrs, 48 hrs, 72 hrs, Figure 2
Procedure: as §1

[4] = molecular target: PRMT1 (Homo sapiens, UniProt Q99873); experiment: In vitro enzyme selectivity assay, PRMT1; format: biochemical; details: in duplicate
Procedure: (§2) The enzymatic inhibitory activities of compounds were measured by the AlphaLISA assay provided by Shanghai ChemPartner Co., Ltd. The compounds selected from virtual screening were transferred to the assay plate (white opaque OptiPlate-384, PerkinElmer). 5 μL of enzyme solution (final concentration was 0.1 nM) or pH 8.0 tris-based assay buffer (for Min well) was added to the assay plate and then centrifuged at 1000 rpm for 1 min. Afterwards, the assay plate was incubated for 15 min at room temperature (RT). Then 5 μL of biotinylated H3 peptide/SAM mix (final concentrations were 50 nM and 300 nM, resp.) was added to the assay plate, which was covered with TopSeal-Afilm and incubated for 1 h at RT after centrifuging at 1000 rpm for 1 min (DMSO final concentration 1%). Next, 5 μL of acceptor beads (final concentration was 10 μg/mL) was added to stop the enzymatic reaction. After incubating at room temperature for 60 min, 10 μL of donor beads was added (final concentration was 10 μg/mL) in subdued light and then centrifuged at 1000 rpm for 1 min. Finally, the mixtures were incubated for 30 min at RT, and the signal was read in alpha mode using EnVision readers. The IC50 values were calculated by fit inhibition rates under different concentrations into GraphPad Prism 5.0 software. […]

[5] = molecular target: T1, CARM1 (Homo sapiens, UniProt Q86X55); experiment: AlphaLISA CARM1 enzyme inhibition assay; format: biochemical; details: biotinylated H3 peptide 50 nM, SAM 300 nM, enzyme 0.1 nM, in duplicate
T1 sequence (Q86X55 1-608): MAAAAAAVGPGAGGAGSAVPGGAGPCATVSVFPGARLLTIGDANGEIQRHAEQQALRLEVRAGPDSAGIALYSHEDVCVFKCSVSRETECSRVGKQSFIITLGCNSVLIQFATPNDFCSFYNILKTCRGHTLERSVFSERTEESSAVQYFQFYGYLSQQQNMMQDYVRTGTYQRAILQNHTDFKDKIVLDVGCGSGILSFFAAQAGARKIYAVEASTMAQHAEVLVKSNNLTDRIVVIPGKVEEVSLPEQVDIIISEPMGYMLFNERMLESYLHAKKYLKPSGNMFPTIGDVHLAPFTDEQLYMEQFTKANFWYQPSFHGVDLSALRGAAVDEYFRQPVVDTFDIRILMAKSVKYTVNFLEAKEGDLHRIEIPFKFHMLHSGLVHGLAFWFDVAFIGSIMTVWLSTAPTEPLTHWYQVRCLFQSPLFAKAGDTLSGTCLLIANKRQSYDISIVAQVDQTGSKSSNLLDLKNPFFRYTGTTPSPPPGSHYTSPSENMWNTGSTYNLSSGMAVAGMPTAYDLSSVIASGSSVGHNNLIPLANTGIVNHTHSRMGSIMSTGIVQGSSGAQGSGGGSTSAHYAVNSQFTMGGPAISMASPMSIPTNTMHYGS
Procedure: The enzymatic inhibitory activities of compounds were measured by the AlphaLISA assay provided by Shanghai ChemPartner Co., Ltd. The compounds selected from virtual screening were transferred to the assay plate (white opaque OptiPlate-384, PerkinElmer). 5 μL of enzyme solution (final concentration was 0.1 nM) or pH 8.0 tris-based assay buffer (for Min well) was added to the assay plate and then centrifuged at 1000 rpm for 1 min. Afterwards, the assay plate was incubated for 15 min at room temperature (RT). Then 5 μL of biotinylated H3 peptide/SAM mix (final concentrations were 50 nM and 300 nM, resp.) was added to the assay plate, which was covered with TopSeal-Afilm and incubated for 1 h at RT after centrifuging at 1000 rpm for 1 min (DMSO final concentration 1%). Next, 5 μL of acceptor beads (final concentration was 10 μg/mL) was added to stop the enzymatic reaction. […] Finally, the mixtures were incubated for 30 min at RT, and the signal was read in alpha mode using EnVision readers. The IC50 values were calculated by fit inhibition rates under different concentrations into GraphPad Prism 5.0 software. […] The end point was read in alpha mode using EnVision readers, and IC50 values were calculated in GraphPad Prism 5.0 software.

[6] = molecular target: PRMT5 (Homo sapiens, UniProt O14744); experiment: In vitro enzyme selectivity assay, PRMT5; format: biochemical; details: at a concentration of 50 μM; read-out: inhibition rate of PRMT5
Procedure: as §2

[7] = molecular target: PRMT6 (Homo sapiens, UniProt Q96LA8); experiment: In vitro enzyme selectivity assay, PRMT6; format: biochemical; details: in duplicate
Procedure: as §2

Chain of PRMT1 (Q99873 whole entry, species assumed): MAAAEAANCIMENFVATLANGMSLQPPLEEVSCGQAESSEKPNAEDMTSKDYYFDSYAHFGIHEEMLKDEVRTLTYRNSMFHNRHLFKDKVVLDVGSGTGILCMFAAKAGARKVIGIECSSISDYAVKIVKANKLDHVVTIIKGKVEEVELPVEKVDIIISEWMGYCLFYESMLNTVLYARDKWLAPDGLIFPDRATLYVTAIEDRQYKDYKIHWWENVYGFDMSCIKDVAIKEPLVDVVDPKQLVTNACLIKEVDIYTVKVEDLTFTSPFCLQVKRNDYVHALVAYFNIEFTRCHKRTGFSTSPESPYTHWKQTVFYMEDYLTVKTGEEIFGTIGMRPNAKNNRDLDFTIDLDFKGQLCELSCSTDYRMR
Chain of PRMT6 (Q96LA8 whole entry, species assumed): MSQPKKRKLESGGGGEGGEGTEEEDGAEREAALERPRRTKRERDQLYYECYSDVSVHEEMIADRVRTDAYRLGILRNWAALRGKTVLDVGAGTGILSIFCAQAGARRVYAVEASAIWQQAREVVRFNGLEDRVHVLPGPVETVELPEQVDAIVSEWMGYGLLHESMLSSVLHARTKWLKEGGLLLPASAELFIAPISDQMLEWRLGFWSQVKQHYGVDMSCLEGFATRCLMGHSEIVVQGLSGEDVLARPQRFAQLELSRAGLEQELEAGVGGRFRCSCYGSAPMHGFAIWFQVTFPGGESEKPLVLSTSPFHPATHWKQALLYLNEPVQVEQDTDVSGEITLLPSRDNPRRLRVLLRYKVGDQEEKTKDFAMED
Chain of PRMT5 (O14744 whole entry, species assumed): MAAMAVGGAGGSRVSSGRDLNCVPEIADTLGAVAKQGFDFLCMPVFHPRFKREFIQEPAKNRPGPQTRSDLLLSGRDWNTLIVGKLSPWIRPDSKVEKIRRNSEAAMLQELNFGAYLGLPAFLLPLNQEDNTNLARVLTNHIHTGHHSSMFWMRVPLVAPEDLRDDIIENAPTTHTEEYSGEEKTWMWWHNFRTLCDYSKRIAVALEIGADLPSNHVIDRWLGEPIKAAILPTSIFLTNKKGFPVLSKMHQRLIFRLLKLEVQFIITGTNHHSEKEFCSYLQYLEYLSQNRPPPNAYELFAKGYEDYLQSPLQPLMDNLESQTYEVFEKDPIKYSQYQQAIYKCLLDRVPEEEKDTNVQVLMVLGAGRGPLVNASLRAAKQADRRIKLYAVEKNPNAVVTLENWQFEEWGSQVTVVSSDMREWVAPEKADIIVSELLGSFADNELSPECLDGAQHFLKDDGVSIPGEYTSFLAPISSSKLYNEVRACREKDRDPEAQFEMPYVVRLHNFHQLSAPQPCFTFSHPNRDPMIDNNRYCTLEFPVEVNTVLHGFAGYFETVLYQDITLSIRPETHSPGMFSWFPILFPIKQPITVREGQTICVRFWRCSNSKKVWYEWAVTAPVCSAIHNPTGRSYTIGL
Chain of PRMT5 (Q9BQA1 whole entry partner, species assumed): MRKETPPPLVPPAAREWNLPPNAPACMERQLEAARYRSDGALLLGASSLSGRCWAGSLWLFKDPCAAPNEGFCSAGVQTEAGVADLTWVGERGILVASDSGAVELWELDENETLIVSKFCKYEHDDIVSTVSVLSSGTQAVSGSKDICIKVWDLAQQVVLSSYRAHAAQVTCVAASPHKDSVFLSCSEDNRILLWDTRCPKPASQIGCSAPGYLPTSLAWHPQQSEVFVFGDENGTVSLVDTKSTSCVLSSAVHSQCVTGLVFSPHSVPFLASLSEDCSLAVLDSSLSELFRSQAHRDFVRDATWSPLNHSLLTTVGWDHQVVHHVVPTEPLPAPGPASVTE

SMILES | Antiproliferative effect on HELA [1] | Antiproliferative effect on K562 [2] | Antiproliferative effect on MCF7 [3] | IC50 [4] | IC50 [5] | inhibition at 50 µM [6] | IC50 [7]
Nc1ncnc2c1ncn2[C@@H]1O[C@H](C[C@@H](N)CC[C@H](N)C(=O)O)[C@@H](O)[C@H]1O [Sinefungin, reference compound] | weaker inhibitory activity | weaker inhibitory activity | weaker inhibitory activity |  |  |  | 
CCOC(=O)c1c2c3ccccc3c3ccccc3c2cc2[n+]1CCc1ccccc1-2 [DC_C66] | inhibit proliferation of cancer cells in a time-dependent and dose-dependent manner | inhibit proliferation of cancer cells in a time-dependent and dose-dependent manner | inhibit proliferation of cancer cells in a time-dependent and dose-dependent manner | 21 µM | 1.8 µM | < 50% | 47 µM
O=C(c1ccccc1)c1c2c(cc3sc4ccccc4[n+]13)-c1cccc3cccc-2c13 [DC_C11] | inhibit proliferation of cancer cells in a time-dependent and dose-dependent manner | inhibit proliferation of cancer cells in a time-dependent and dose-dependent manner | inhibit proliferation of cancer cells in a time-dependent and dose-dependent manner | 36 µM | 15 µM |  | 41 µM
